The subject of experiment [1] is QM and E PDAC monoculture and co-culture with CAF1. The experiment is described as follows: FFX dose response in PDAC monoculture and co-culture with CAF1. The format is cell-based, human. As to conditions: both monocultures and CAF co-culture conditions.
Excerpt: (a) Dose response curves in QM and E PDAC monoculture and co-culture with CAF1, as well as CAF1 monoculture, following FFX treatment. (b) FFX IC50 for QM and E PDAC monoculture versus co-culture with CAF1. […] (a) Dose response curves in QM and E PDAC monoculture following combination 5z-7-oxozeaenol and FFX treatment. (b) Dose response curves in QM and E PDAC co-culture with CAF1 following combination 5z-7-oxozeaenol and FFX treatment. (c) Dose response curves in CAF1 monoculture following combination 5z-7-oxozeaenol and FFX treatment. […] (a) Dose response curves in QM and E PDAC monoculture following combination losartan and FFX treatment. (b) Dose response curves in QM and E PDAC co-culture with CAF1 following combination losartan and FFX treatment. (c) Dose response curves in CAF1 monoculture following combination losartan and FFX treatment. PDAC cells were co-cultured with fibroblasts (CAF) to more closely mimic the tumor microenvironment.
The next experiment concerns CAF1 monoculture. The experiment is described as follows: Dose response and combination treatment in CAF1 monoculture. The class given is cell-based. As to conditions: combination with FFX. The source says: FIGS. 7A-C. […] FIGS. 8A-C. […] Values indicate percent killing, as compared to untreated cells, such that 0 indicates no killing and 100 indicates all cells killed. (e) Combination drug treatments of CAF1 monoculture. Values indicate percent killing, as compared to untreated cells, such that 0 indicates no killing and 100 indicates all cells killed. […] In order to evaluate whether oxo could synergize with FOLFIRINOX, we performed combinatorial drug treatment in PDAC monoculture and PDAC/CAF co-culture settings (FIG. 9A). […] In order to assess for synergistic activity between Oxo and FOLFIRINOX, we used the Bliss independence model to analyze our drug combination experiments (Bliss, 1939; Yadav et al., 2015).

In experiment [2] the test system is PDAC monoculture and PDAC/CAF co-culture. The experiment in a line: Combinatorial drug treatment, percent killing and Bliss synergy. The format is cell-based, human. From the text: FIGS. 9A-E. Combinational drug treatment (Oxo+FFX) in PDAC alone or PDAC+CAF coculture. […] (b) Combination drug treatments of PDAC 3 and PDAC 6, as monoculture or co-culture with CAF1. Values indicate percent killing, as compared to untreated cells, such that 0 indicates no killing and 100 indicates all cells killed. (c) Bliss plots of synergistic activity between 5z-7-oxozeaenol and FFX, where positive values represent synergistic activity, negative values represent anti-synergistic activity, and 0 represents no synergy. Synergy data are based on values from 8B. (d) Combination drug treatments of PDAC 8 and PDAC 9, as monoculture or co-culture with CAF1. Values indicate percent killing, as compared to untreated cells, such that 0 indicates no killing and 100 indicates all cells killed. (e) Combination drug treatments of CAF1 monoculture. Values indicate percent killing, as compared to untreated cells, such that 0 indicates no killing and 100 indicates all cells killed. FIG. 10. Combinational drug treatment (Losartan+FFX) in PDAC alone or PDAC+CAF coculture. Combination drug treatments of PDAC 3 and PDAC 6, as monoculture or co-culture with CAF1. Values indicate percent killing, as compared to untreated cells, such that 0 indicates no killing and 100 indicates all cells killed. In order to evaluate whether oxo could synergize with FOLFIRINOX, we performed combinatorial drug treatment in PDAC monoculture and PDAC/CAF co-culture settings (FIG. 9A). […] In order to assess for synergistic activity between Oxo and FOLFIRINOX, we used the Bliss independence model to analyze our drug combination experiments (Bliss, 1939; Yadav et al., 2015).

In experiment [3] the test system is patient-derived PDAC cell lines. The experiment in a line: RNA-ISH and total RNA sequencing of E/QM (EMT) signatures after Oxo treatment. The format is cell-based, human. As to conditions: for E gene expression (RNA-ISH and RNA sequencing) / QM gene expression (RNA-ISH and RNA sequencing): Oxo 10 μM, 10 days, across PDAC cell lines. Here is the method: (c) PDAC3, 9 and 6 cells were treated with Oxo (10 μM) for 10 days in tumorsphere (3D) condition.

For experiment [4], the system named is PDAC cell lines. The experiment in a line: Clonogenic assay (crystal violet, colony area by Image J). As to conditions: 2 weeks. The format is cell-based, human. The protocol:
(§1) FIGS. 3A-D. Graphs showing relative cell growth of (a) QM and (b) E PDACs in 3D condition upon FFX and/or Oxo treatment with indicated concentrations for 2 weeks. Cell viability was measured using CellTiter Glo assay. Images showing growing PDACs (in 3D) under these conditions. (c) Graphs with results for clonogenic assay upon FFX and/or Oxo treatment with indicated concentrations for 2 weeks. Then, cells were fixed with 3.7% PFA and stained with crystal violet. Relative colony area was measured using Image J. (d) Images with 2D (Boyden chamber) and 3D invasion assays (type I collagen embedded) of PDAC cell lines incubated with Oxo for 3 days.
FIGS. 4A-F. Effects of TAK1 Knockout in PDAC EMT Plasticity. (a) Western blots showing complete ablation of TAK1 across PDAC cell lines. (b) Heatmaps based on RNA-ISH and total RNA-seq showing EMT signatures in TAK1 KO PDAC6 and PDAC9 cell lines. (c) Clonogenic assays for WT (non-targeting single guide RNA, sgRNA) and TAK1 KO cell lines treated with FFX for 2 weeks. Colony area was determined by Image J. (d) Images with 2D invasion assay (Boyden chamber) in TAK1 KO PDAC cell lines. (e) Graphs confirming functional ablation of TAK1 represented by TAK1 downstream activity of p-MEK1/2 and p-ERK1/2 under TGFbeta stimulation. (f) Graphs with results for clonogenic assay upon FFX and/or Takinib treatment with indicated concentrations for 2 weeks.

A further experiment relates to MEK. Conditions: cited from earlier work.
The test system of experiment [5] is PDAC cell lines. The experiment is described as follows: 2D (Boyden chamber) and 3D (type I collagen embedded) invasion assays. The format is cell-based, human. As to conditions: Oxo for 3 days. Here is the method: as §1
A further experiment deals with T1, TAK1 (Homo sapiens, UniProt O43318).
T1 sequence (O43318 1-606): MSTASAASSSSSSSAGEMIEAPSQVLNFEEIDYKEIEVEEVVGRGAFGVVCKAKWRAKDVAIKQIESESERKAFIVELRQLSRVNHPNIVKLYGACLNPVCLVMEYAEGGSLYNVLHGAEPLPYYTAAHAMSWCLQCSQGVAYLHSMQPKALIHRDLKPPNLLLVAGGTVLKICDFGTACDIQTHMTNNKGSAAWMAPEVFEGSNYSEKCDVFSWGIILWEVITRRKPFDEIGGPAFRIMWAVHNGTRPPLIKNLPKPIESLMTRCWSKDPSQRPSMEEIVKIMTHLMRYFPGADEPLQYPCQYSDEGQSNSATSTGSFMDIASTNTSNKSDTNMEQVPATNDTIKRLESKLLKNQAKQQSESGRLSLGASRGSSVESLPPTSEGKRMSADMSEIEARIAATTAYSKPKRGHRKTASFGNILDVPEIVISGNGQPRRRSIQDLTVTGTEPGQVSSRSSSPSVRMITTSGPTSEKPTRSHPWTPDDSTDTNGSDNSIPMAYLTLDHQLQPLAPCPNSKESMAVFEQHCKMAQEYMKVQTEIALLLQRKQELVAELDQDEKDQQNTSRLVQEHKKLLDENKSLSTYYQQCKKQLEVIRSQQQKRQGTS
T1 sequence (Q15750 1-504 partner): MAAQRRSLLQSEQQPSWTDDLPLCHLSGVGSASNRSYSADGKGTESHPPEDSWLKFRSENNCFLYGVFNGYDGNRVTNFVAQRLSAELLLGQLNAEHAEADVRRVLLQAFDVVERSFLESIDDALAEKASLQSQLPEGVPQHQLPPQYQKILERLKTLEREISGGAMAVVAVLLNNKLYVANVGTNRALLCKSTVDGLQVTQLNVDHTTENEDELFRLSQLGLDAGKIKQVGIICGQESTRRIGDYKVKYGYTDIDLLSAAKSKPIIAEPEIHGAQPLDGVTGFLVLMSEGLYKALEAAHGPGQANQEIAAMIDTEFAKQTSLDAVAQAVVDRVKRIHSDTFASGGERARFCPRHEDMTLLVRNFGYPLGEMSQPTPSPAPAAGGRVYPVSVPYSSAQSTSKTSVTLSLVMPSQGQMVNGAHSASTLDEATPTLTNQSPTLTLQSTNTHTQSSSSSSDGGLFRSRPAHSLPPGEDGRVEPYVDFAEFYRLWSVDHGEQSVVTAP
As to conditions: cited from earlier work.

Another experiment concerns QM and E PDACs. The experiment is described as follows: Relative cell growth in 3D condition upon FFX and/or Oxo treatment (CellTiter Glo). The class given is cell-based, human. As to conditions: for killing of / sensitivity to FFX of QM cells when Oxo is added to FOLFIRINOX: QM cells compared to E cells, 3D, 2 weeks. The protocol: Cell viability was measured using CellTiter Glo assay. […] Then, cells were fixed with 3.7% PFA and stained with crystal violet. Relative colony area was measured using Image J. (d) Images with 2D (Boyden chamber) and 3D invasion assays (type I collagen embedded) of PDAC cell lines incubated with Oxo for 3 days.

The target of another experiment is T2, FLT3 (Homo sapiens, UniProt P36888).
T2 sequence (P36888 27-993): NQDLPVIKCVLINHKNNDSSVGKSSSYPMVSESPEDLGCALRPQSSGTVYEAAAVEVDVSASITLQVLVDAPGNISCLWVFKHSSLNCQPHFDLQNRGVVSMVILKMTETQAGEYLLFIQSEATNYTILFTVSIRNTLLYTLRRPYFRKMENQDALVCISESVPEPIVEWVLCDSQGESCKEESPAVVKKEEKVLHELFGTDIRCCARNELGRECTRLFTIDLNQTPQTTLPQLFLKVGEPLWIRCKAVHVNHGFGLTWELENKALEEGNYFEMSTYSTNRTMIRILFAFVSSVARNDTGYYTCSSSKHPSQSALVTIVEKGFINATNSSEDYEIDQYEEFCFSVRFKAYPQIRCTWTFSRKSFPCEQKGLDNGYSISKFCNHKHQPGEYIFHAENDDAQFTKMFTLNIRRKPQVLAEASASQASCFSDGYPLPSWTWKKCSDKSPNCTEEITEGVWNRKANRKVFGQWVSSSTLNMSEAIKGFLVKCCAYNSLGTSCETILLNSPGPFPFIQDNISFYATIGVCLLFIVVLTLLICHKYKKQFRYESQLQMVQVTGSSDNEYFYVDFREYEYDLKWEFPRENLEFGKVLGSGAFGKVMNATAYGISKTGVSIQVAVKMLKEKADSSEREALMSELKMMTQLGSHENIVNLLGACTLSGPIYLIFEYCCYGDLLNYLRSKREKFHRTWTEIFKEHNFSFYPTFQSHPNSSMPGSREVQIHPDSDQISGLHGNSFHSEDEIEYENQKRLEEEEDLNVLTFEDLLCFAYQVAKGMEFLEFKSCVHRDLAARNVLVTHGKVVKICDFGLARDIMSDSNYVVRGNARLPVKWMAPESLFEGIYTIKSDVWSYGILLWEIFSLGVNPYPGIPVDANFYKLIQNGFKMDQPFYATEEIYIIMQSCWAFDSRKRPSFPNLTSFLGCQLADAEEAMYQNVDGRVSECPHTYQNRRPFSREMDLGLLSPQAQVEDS
Conditions: cited from earlier work.

Each structure is given as a SMILES string.

For `CCCCc1nc(Cl)c(CO)n1Cc1ccc(-c2ccccc2-c2nn[nH]n2)cc1` [Losartan, reference compound], the “effect on PDAC cell response to FOLFIRINOX” value in experiment [1] was “did not affect”. In addition, in the experiment on CAF1 monoculture, the “effect on CAFs alone” value is reported as “no effect”. In experiment [2] (PDAC 3 and PDAC 6, monoculture or co-culture with CAF1), the “additional killing when combined with FOLFIRINOX” value was “did not demonstrate any additional killing”. Besides, the “cell growth when combined with FOLFIRINOX” value in experiment [2] (low FOLFIRINOX settings) is on record as “increased cell growth”.
For the compound `COc1cc(O)c2c(c1)/C=C/C[C@H](O)[C@H](O)C(=O)/C=C\C[C@H](C)OC2=O` [Oxo, (5z)-7-oxozeaenol], the figures for the “E gene expression (RNA-ISH and RNA sequencing)” value in experiment [3] (listed as (5z)-7-Oxozeaenol) and in experiment [3] (listed as oxo) were “enrichment” and “increased”, respectively. Further, the “QM gene expression (RNA-ISH and RNA sequencing)” value is “decreased” in experiment [3] (listed as (5z)-7-Oxozeaenol) and “significantly suppressed” in experiment [3] (listed as oxo). The “mesenchymal gene expression (Hallmark EMT geneset)” value was “significantly decreased” in experiment [3] (PDAC 3, 6, and 8); “numerically decreased” in [3] (PDAC 9). Further, the “global mesenchymal gene expression (200 genes of Hallmark EMT geneset)” value in experiment [3] (all lines tested, with vs without Oxo) was “numerically lower”. In addition, in the experiment on PDAC cell lines [4] (Oxo-treated PDACs), the colony formation result is recorded as “significant reduction”. Further, in experiment [1], the “effect on PDAC cell response to FOLFIRINOX” value was “sensitized”. In addition, the “inhibition of MEK” value in the experiment with MEK is on record as “inhibit”. The invasiveness / invasion result was “significant reduction” with PDAC cell lines [5] and “reduced” in the experiment on PDAC cell lines [5] (listed as (5z)-7-Oxozeaenol). Moreover, the “migratory abilities / migration” value was “significant reduction” in the experiment with PDAC cell lines [5] and “reduced” with PDAC cell lines [5] (listed as (5z)-7-Oxozeaenol). The “inhibition of TAK1” value at TAK1 is “inhibit”. Also, in the experiment on QM and E PDACs (E cells BxPC3 and DAN-G), the “sensitivity to Oxo as a single agent” value is reported as “sensitive”. Moreover, the “killing of / sensitivity to FFX of QM cells when Oxo is added to FOLFIRINOX” value with QM and E PDACs was “synergistic increased killing”; with QM and E PDACs (listed as (5z)-7-Oxozeaenol), “synergistically increased”. The “inhibition of FLT3” value at FLT3 is “inhibit”. Also, in the experiment with CAF1 monoculture, the “effect on CAFs alone” value is “little effect”. Besides, the “cell killing (cell viability)” value in [2] (increasing doses, 3 days, monoculture and co-culture) is “dose-dependent cell killing”.
In the case of `CCCn1/c(=N/C(=O)c2cccc(C(N)=O)c2)[nH]c2ccccc21` [Takinib, reference compound], the “sensitization of FOLFIRINOX response (clonogenic assay)” value with PDAC cell lines [4] (QM PDAC cells, FFX and/or Takinib) is given as “not able to sensitize”. The “inhibition of TAK1” value at TAK1 is listed as “selective inhibitor”.

Source of the values: patent US20250319061A1, “COMBINATION TREATMENT FOR ADENOCARCINOMA” (The General Hospital Corporation, priority 2022, published 2025).
